Measured values: publication PMC10975012, “The Active Glucuronide Metabolite of the Brain Protectant IMM-H004 with Poor Blood–Brain Barrier Permeability Demonstrates a High Partition in the Rat Brain via Multiple Mechanisms” (Pharmaceutics, 2024)

How the values were obtained:
[1] = Uptake kinetics in hCMEC/D3 cells; format: cell-based, human; conditions: human, hCMEC/D3 cells, 2–400 μmol/L, 10 min
Method: (§1) Uptake assays into hCMEC/D3 cells were conducted in 24-well plates. All incubations were carried out at 37 °C in triplicate unless otherwise noted. In time-dependent uptake studies, hCMEC/D3 cells were incubated with IMM-H004 (10 µmol/L) and IMM-H004G (50 µmol/L) dissolved in HBSS under gentle shaking for up to 30 min. To investigate the impact of incubation temperature on the uptake of IMM-H004 and IMM-H004G by hCMEC/D3 cells, incubation was performed at 4 or 37 °C for 10 min. To determine the kinetic parameters, the cells were incubated with IMM-H004 and IMM-H004G (2–400 µmol/L) for 10 min. The uptake data were fitted to the following equation using nonlinear least-square regression analysis in GraphPad Prism 9 (GraphPad, San Diego, CA, USA):(1) V=Vmax×S/Km+S+Kns×S where V is the uptake velocity (nmol/mg protein/min), and S is the initial concentration (μmol/L). Vmax, Km, and Kns represent the maximum uptake velocity (nmol/mg protein/min), the Michaelis–Menten constant (μmol/L), and nonsaturable uptake clearance (μL/mg protein/min), respectively. The saturable uptake of both IMM-H004 and IMM-H004G was plotted with the Eadie–Hofstee method by subtracting passive uptake from the total uptake.

hCMEC/D3 cells = test: Uptake kinetics in hCMEC/D3 cells; format: cell-based, human; conditions: for reduction of uptake at 4 °C compared to 37 °C: 10 μmol/L; for reduction of uptake at 4 °C compared to 37 °C / Kns, passive diffusion rate / Vmax/Km ratio, transporter-mediated uptake: 10 min; for Kns, passive diffusion rate / Vmax/Km ratio, transporter-mediated uptake: 2–400 μmol/L
Method: as §1

[2] = system: pyrilamine-sensitive H^+/OC antiporter; test: Identification of transporters using inhibitors in hCMEC/D3 cells: H+/OC antiporter; format: cell-based, human; conditions: substrate 10 μmol/L; for reduction of uptake by quinidine: quinidine 100 μmol/L; for reduction of uptake by verapamil: verapamil 100 μmol/L
Method: (§2) The toxicity of all compounds, including inhibitors and substrates, toward hCMEC/D3 cells, was assessed using the 3-(4,5-Dimethylthiazol-2-yl)-2,5-diphenyltetrazolium bromide (MTT) reduction assay as described previously. To assess the effects of pyrilamine-sensitive proton-coupled organic cation (H^+/OC) antiporter, organic anion transporter (OAT), organic anion-transporting polypeptides (OATPs), organic cation transporter (OCT), and novel organic cation–carnitine transporter (OCTN) inhibitors on the uptake process, IMM-H004 or IMM-H004G (10 µmol/L) combined with the inhibitors were added to the medium after preincubating the cells with the inhibitors for 30 min. For evaluating the impact of the multidrug and toxin extrusion transporter (MATE), P-glycoprotein (P-gp), multidrug resistance protein (MRP), and breast cancer resistance protein (BCRP) on the uptake, IMM-H004 or IMM-H004G (10 µmol/L) was preincubated with the cells for 2 h before the addition of the inhibitors. After removing the supernatant, the cells were washed twice with prewarmed HBSS and incubated with fresh HBSS for 20 min. At the end of incubation, the supernatants were collected. The cells were washed with cold HBSS and lysed using RIPA buffer. The protein content of the lysed cells was determined using a bicinchoninic acid (BCA) assay kit (Beyotime Inc., Shanghai, China). The results were expressed as a percentage of the vehicle control.

P-gp = target: T1, P-gp (Homo sapiens, UniProt P08183); test: Identification of transporters using inhibitors in hCMEC/D3 cells: P-gp; format: cell-based; conditions: substrate 10 μmol/L, PSC833 5 μmol/L
T1 construct: host or cells: hCMEC/D3
T1 sequence (P08183 whole entry): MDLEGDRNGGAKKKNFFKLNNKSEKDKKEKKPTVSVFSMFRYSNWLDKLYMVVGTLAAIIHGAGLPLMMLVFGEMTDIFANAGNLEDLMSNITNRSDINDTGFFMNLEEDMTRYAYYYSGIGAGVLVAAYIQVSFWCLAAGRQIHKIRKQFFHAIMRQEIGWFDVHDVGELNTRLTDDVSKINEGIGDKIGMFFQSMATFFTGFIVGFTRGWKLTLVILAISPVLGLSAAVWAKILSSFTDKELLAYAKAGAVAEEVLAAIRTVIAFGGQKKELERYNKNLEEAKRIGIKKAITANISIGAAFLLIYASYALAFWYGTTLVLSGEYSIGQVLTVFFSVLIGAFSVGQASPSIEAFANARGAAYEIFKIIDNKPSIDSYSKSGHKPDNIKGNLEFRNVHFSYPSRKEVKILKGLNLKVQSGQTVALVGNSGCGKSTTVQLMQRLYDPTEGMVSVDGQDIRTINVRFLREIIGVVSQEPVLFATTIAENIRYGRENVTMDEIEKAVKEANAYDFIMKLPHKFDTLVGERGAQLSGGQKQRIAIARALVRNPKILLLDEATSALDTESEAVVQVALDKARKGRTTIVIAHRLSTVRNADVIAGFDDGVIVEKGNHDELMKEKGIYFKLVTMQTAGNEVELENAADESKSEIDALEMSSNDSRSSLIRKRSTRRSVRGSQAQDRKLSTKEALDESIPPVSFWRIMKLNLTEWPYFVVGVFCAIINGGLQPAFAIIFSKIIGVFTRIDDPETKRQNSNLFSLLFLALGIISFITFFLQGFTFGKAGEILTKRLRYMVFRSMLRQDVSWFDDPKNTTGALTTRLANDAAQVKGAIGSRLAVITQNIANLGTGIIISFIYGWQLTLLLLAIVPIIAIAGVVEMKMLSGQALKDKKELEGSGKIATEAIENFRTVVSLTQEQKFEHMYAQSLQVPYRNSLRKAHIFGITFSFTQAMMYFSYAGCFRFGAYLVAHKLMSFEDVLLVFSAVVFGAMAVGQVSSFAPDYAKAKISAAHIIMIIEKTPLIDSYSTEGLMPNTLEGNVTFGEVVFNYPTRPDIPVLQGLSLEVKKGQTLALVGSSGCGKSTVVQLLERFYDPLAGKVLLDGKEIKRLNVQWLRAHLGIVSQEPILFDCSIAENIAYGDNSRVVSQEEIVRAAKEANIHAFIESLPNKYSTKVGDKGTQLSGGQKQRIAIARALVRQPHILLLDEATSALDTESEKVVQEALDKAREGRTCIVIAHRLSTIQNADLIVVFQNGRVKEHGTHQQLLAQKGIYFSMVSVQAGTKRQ
Method: as §2, with “The cells were washed with cold HBSS and lysed using RIPA buffer.” left out

[3] = system: OAT, OCT, OCTN, BCRP, and MRP; test: Identification of transporters using inhibitors in hCMEC/D3 cells: other transporters; format: cell-based, human; conditions: substrate 10 μmol/L
Method: as §2, with “The cells were washed with cold HBSS and lysed using RIPA buffer.” left out

In situ brain perfusion = format: in vivo, rat; conditions: 10 μmol/L
Method: The rat brain was perfused following a previously described method. Briefly, the common carotid arteries on both sides were cannulated and connected to the perfusion system, while the external carotid artery was ligated. At the beginning of perfusion, the jugular veins on both sides were quickly incised. The perfusion procedure consisted of a preperfusion wash with saline for 1 min, followed by drug infusion (2 µmol/L IMM-H004 or IMM-H004G) for 2, 5, and 10 min, and concluded with a postperfusion wash (saline for 5 min) at a rate of 4.0 mL/min. To examine the impact of P-gp (PSC833, 5 µmol/L) and OATP (rifamycin SV, 100 µmol/L) on BBB transport, the perfusate containing the inhibitor was perfused for 1 min, and then the mixture of IMM-H004 or IMM-H004G (10 µmol/L) and the inhibitor was perfused for 10 min. Following the perfusion, the rats were decapitated, and their brains were homogenized (1:3, w/v) in chilled saline. The concentrations of IMM-H004 and IMM-H004G were then determined by LC-MS/MS.
The unidirectional transfer constant Kin (mL/min/g) was calculated using the following equation:(4) Kin=Qbr/Cpf[…] where Qbr/Cpf is the apparent brain distribution volume, Qbr is the measured amount of compound in brain tissue, Cpf is the concentration of compound in the perfusate, and T is the perfusion time.

[4] = Pharmacokinetics in rats with cerebral microdialysis; format: in vivo; conditions: rat; for Kp: brain (cerebral cortex microdialysate) and plasma, read-out: Kp (AUCbrain/AUCplasma); for peak brain concentration: free concentration (microdialysis); for AUCbrain / concentration at 2 min / AUC: free concentration; for concentration at 2 min / AUC: plasma (free concentration); for AUC: read-out: AUCplasma
Method: Rats were anesthetized with isoflurane. Microdialysis intracerebral guide cannulas and CMA 12 Elite Probe (PAES membrane with a MWCO of 20 kDa, 2 mm membrane length (CMA/Microdialysis AB, Stockholm, Sweden)) were implanted into the cerebral cortex at the coordinates relative to bregma: medial/lateral = 3.0 mm; anterior/posterior = 0.5 mm; dorsal/ventral = −3.0 mm. After a 24 h recovery period, the intracerebral probe was connected to the microdialysis cannula, and Ringer’s solution was perfused at a flow rate of 2.0 μL/min. Then, IMM-H004 citrate or IMM-H004G (10 mg/kg) was injected intravenously (iv). Dialysate samples were collected every 5 to 60 min for a duration of 7 h. The probe recovery in vitro was determined by dialyzing a standard mixture of IMM-H004 (50 ng/mL) and IMM-H004G (300 ng/mL) infused with Ringer’s solution.
Blood samples were collected from the orbital plexus into heparinized tubes and subsequently centrifuged to separate the plasma. The concentrations of IMM-H004 and IMM-H004G in both the dialysate and plasma samples were determined using LC-MS/MS analysis. Subsequently, the free concentrations in the brain and plasma were corrected with probe recovery and fu for further analysis, respectively. The pharmacokinetic parameters were calculated via noncompartmental analysis (NCA) using Phoenix WinNonlin 6.3 (Pharsight Corporation, Sunnyvale, CA, USA). The brain–plasma partition coefficient (Kp) was determined as the ratio of the area under the concentration–time curve for the brain (AUCbrain) to that of the plasma (AUCplasma).

[5] = after iv IMM-H004 citrate 10 mg/kg

| Km at 10 min [1] [µM] | reduction of uptake at 4 °C compared to 37 °C (hCMEC/D3 cells) [%] | Kns, passive diffusion rate (hCMEC/D3 cells) [μL/min/mg protein] | Vmax/Km ratio, transporter-mediated uptake (hCMEC/D3 cells) [μL/min/mg protein] | reduction of uptake by quinidine [2] | reduction of uptake by verapamil [2] | uptake with P-gp inhibitor PSC833 relative to control (P-gp) | effect of inhibitors of OAT, OCT, OCTN, BCRP, and MRP on uptake [3] | change in Kin value with OATP inhibitor (In situ brain perfusion; rifamycin SV 100 μmol/L, 10 min perfusion, rat) | AUCbrain relative to that of IMM-H004 [4, 5] [times] | AUCplasma relative to that of IMM-H004 [4, 5] [times] | Kp [4, 5] | peak brain concentration ([4]; after iv IMM-H004G 10 mg/kg) [nmol/L] | AUCbrain ([4]; after iv IMM-H004G 10 mg/kg) [µM·h] | AUCbrain [4, 5] [µM·h] | concentration at 2 min ([4]; after iv IMM-H004G 10 mg/kg) [µM] | AUC [4, 5] [µM·h] | Kns relative to that of IMM-H004G (hCMEC/D3 cells) [times] | increase in Kin value with P-gp inhibitor PSC833 compared to control (In situ brain perfusion; PSC833 5 μmol/L, 10 min perfusion, rat) [times] | Kin value relative to that of IMM-H004G (In situ brain perfusion; in situ rat brain perfusion) [times higher] | SMILES |
| --- | --- | --- | --- | --- | --- | --- | --- | --- | --- | --- | --- | --- | --- | --- | --- | --- | --- | --- | --- | --- |
| 10.7 | 70.6 | 0.100 | 1.50 | not affected | not affected | without affecting | No significant impact | no significant change | 5.4 | 116 | 0.06 | 1712 | 1.923 | 1.053 | 40.2 | 16.4 |  |  |  | COc1cc(OC2OC(C(=O)O)C(O)C(O)C2O)cc2oc(=O)c(N3CCN(C)CC3)c(C)c12 (stereo not shown) [IMM-H004G] |
| 89.5 | 57.1 | 0.877 | 18.8 | 57.7% | 61.5% | 1.3 times that of the control | No significant impact |  |  |  | 1.39 | 35.1 | 0.0938 | 0.196 | 0.0398 | 0.141 | 8.77 | 4.3 | 18 | COc1cc(O)cc2oc(=O)c(N3CCN(C)CC3)c(C)c12 [IMM-H004] |
